Structures can show the parent of a compound that is named as a salt. Where two headings read alike, the source gives them in different places.
Target: T1, Human IP6K1 (Homo sapiens, UniProt Q92551)
T1 construct: GST (N, cleaved yes); made in house; host or cells: C43 E. coli, pGEX-6P-2
Assay: IP6K1 high-throughput screen of the Sigma LOPAC (ADP-Glo Max, single point);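 also: final compound concentration 10µM in 5% DMSO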
Type: biochemical

[1] = Sigma LOPAC single-point screen, ADP-Glo Max raw signal per well
[2] = Sigma LOPAC single-point screen, Z-score from plate average and StDev
[3] = LOPAC single-point screen, ADP-Glo Max luminescence raw signal per well
[4] = LOPAC single-point screen, Z-score relative to plate average and StDev
[5] = LOPAC single-point screen, ADP-Glo Max raw signal per well
[6] = LOPAC single-point screen, Z-score from raw signal with plate average and StDev
[7] = LOPAC single-point screen, Z-score against plate average and StDev
[8] = LOPAC single-point screen, Z-score from plate average and StDev

T1 sequence (Q92551 whole entry): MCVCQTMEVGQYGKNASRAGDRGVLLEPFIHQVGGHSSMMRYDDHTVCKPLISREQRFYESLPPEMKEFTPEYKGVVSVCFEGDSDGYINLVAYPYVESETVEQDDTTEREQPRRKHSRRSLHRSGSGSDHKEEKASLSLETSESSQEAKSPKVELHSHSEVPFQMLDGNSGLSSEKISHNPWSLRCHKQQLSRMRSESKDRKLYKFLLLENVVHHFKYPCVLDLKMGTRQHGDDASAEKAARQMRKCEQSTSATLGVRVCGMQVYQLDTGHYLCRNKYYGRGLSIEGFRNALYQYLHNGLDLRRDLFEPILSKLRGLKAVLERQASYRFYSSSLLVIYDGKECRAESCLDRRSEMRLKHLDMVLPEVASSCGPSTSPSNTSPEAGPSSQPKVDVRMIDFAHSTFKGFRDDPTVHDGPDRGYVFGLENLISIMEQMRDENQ

## O=C(O)CCCCC1CCSS1 (racemic) [(±)-alpha-Lipoic Acid]
[1]
  Raw Signal: 59328
[2]
  Z-score: 0.6419

## C=CCc1ccccc1OCC(O)CNC(C)C (stereo not drawn) [Alprenolol hydrochloride]
[1]
  Raw Signal: 60855
[2]
  Z-score: 0.5181

## CCOC(=O)C1=C(C)NC(C)=C(C(=O)OC)C1c1cccc(Cl)c1Cl (stereo not drawn) [Felodipine]
[3]
  Raw Signal: 52611
[4]
  Z-score: -0.5191

## Cc1ccc(=O)n(-c2ccccc2)c1 [Pirfenidone]
[5]
  Raw Signal: 52089
[6]
  Z-score: -0.3872

## CNCC(O)c1ccc(O)cc1 (racemic) [(±)-Synephrine]
[5]
  Raw Signal: 56579
[7]
  Z-score: 0.1079

## COc1ccc2c(c1)c(CC(=O)O)c(C)n2C(=O)c1ccc(Cl)cc1 [Indomethacin]
[5]
  Raw Signal: 54719
[7]
  Z-score: 0.05469

## NC(=S)c1ccc[n+]([C@@H]2O[C@@H](COP(=O)([O-])OP(=O)(O)OC[C@H]3O[C@@H](n4cnc5c(N)ncnc54)C(OP(=O)([O-])O)[C@H]3O)C(O)C2O)c1.[Na+] (stereo partly drawn) [Thio-NADP sodium]
[5]
  Raw Signal: 56703
[7]
  Z-score: 0.132

## Cc1nc2ccccn2c(=O)c1CCN1CCC(C(=O)c2ccc(F)cc2)CC1 [Pirenperone]
[5]
  Raw Signal: 53743
[6]
  Z-score: -0.4431

## COc1ccc2[nH]cc(CCN(C)C)c2c1.O=C(O)C(=O)O [5-Methoxy DMT oxalate]
[1]
  Raw Signal: 59658
[2]
  Z-score: 0.8846

## CC(C)NC[C@@H](O)c1ccc(O)c(O)c1.O=C(O)C(O)C(O)C(=O)O [S(+)-Isoproterenol (+)-bitartrate]
[5]
  Raw Signal: 55551
[7]
  Z-score: 0.1945

## CC(=O)Nc1nnc(S(N)(=O)=O)s1 [Acetazolamide]
[3]
  Raw Signal: 54920
[4]
  Z-score: -0.5272

## N=C(N)c1ccccc1 [Benzamidine hydrochloride]
[5]
  Raw Signal: 57181
[6]
  Z-score: -0.1289

## CC(=O)NCCc1c[nH]c2ccc(O)cc12 [N-Acetyl-5-hydroxytryptamine]
[3]
  Raw Signal: 55051
[4]
  Z-score: -0.5041

## O=[N+]([O-])c1ccc(O[C@@H]2O[C@H](CO)[C@@H](O)[C@H](O)[C@H]2F)c([N+](=O)[O-])c1
[3]
  Raw Signal: 50009
[4]
  Z-score: -1.048

## NCCc1c[nH]c2ccc(C(N)=O)cc12.O=C(O)/C=C\C(=O)O [5-Carboxamidotryptamine maleate]
[3]
  Raw Signal: 52599
[4]
  Z-score: -0.5215

## NS(=O)(=O)c1cc2c(cc1Cl)NC(C1CC3C=CC1C3)NS2(=O)=O (stereo not drawn) [Cyclothiazide]
[1]
  Raw Signal: 61194
[2]
  Z-score: 1.224

## CCCN(CCC)CCc1cccc2c1CC(=O)N2 [Ropinirole hydrochloride]
[5]
  Raw Signal: 53968
[6]
  Z-score: -0.3994

## Cc1cccc(C(=O)NCN2CCN(c3ccccc3C#N)CC2)c1.O=C(O)/C=C\C(=O)O [PD 168,077 maleate]
[3]
  Raw Signal: 64247
[8]
  Z-score: 1.598

## COC1=C(OC)C(=O)c2ccccc2C1=O [2,3-Dimethoxy-1,4-naphthoquinone]
[1]
  Raw Signal: 57485
[2]
  Z-score: 0.4708

## Nc1ccc(S(=O)(=O)Nc2ccnn2-c2ccccc2)cc1 [Sulfaphenazole]
[5]
  Raw Signal: 54328
[6]
  Z-score: -0.3295

## Cc1ccc(N(CC2=NCCN2)c2cccc(O)c2)cc1 [Phentolamine mesylate]
[5]
  Raw Signal: 54426
[6]
  Z-score: -0.3104

## O=S(=O)(NCCNC/C=C/c1ccc(Br)cc1)c1cccc2cnccc12 [H-89]
[3]
  Raw Signal: 53512
[4]
  Z-score: -0.7752

## Nc1c2c(nc3ccccc13)CCCC2O.O=C(O)/C=C\C(=O)O (stereo not drawn) [Hydroxytacrine maleate]
[5]
  Raw Signal: 53095
[6]
  Z-score: -0.4208

## CC(N)=O [Acetamide]
[1]
  Raw Signal: 63288
[2]
  Z-score: 0.9467

## COc1ccccc1N1CCN(CC(O)COc2cccc3ccccc23)CC1.Cl.Cl (stereo not drawn) [Naftopidil dihydrochloride]
[1]
  Raw Signal: 57488
[2]
  Z-score: 0.52

## Cl.NCCC[C@](N)(C(=O)O)C(F)F (racemic)
[3]
  Raw Signal: 51967
[4]
  Z-score: -0.6499

## Cn1cnc2c1c(=O)[nH]c(=O)n2C [Theobromine]
[3]
  Raw Signal: 52921
[4]
  Z-score: -0.6028

## Cc1oncc1C(=O)Nc1ccc(C(F)(F)F)cc1 [Leflunomide]
[3]
  Raw Signal: 65933
[8]
  Z-score: 1.939

## COC1(C2=NCCN2)COc2ccccc2O1.Cl (stereo not drawn) [RX 821002 hydrochloride]
[5]
  Raw Signal: 56903
[7]
  Z-score: 0.1708

## N[C@@H](CC(=O)O)C(=O)O [L-Aspartic acid]
[5]
  Raw Signal: 58223
[7]
  Z-score: 0.05458

## Cl.NCC(O)c1cc(O)c(O)cc1F (stereo not drawn) [6-Fluoronorepinephrine hydrochloride]
[3]
  Raw Signal: 54023
[4]
  Z-score: -0.6852

## CO/N=C(\C(=O)N[C@@H]1C(=O)N2C(C(=O)O)=C(COC(C)=O)CS[C@H]12)c1csc(N)n1 [Cefotaxime sodium]
[3]
  Raw Signal: 53540
[4]
  Z-score: -0.7702

## N=C(N)NC(=N)Nc1ccccc1 [1-Phenylbiguanide]
[3]
  Raw Signal: 52325
[4]
  Z-score: -0.7186

## N=C(N)c1ccc(N)cc1 [4-Aminobenzamidine dihydrochloride]
[3]
  Raw Signal: 52991
[4]
  Z-score: -0.8669

## N#C/C(=C\c1c[nH]c2ccccc12)C(=O)c1ccc(O)c(O)c1 [Tyrphostin AG 808]
[5]
  Raw Signal: 55945
[7]
  Z-score: -0.01531

## C=CCn1c(=O)c2c(nc(-c3ccc(S(=O)(=O)O)cc3)n2C)n(C)c1=O
[1]
  Raw Signal: 65523
[2]
  Z-score: 1.34

## CNC(=O)OCC[N+](C)(C)C [Methylcarbamylcholine chloride]
[1]
  Raw Signal: 60360
[2]
  Z-score: 1.003

## Cc1ccc(S(=O)(=O)NC(=O)NN2CCCCCC2)cc1 [Tolazamide]
[3]
  Raw Signal: 64192
[8]
  Z-score: 1.587

## O=c1[nH]c2ccccc2c2ccccc12 [6(5H)-Phenanthridinone]
[5]
  Raw Signal: 55315
[6]
  Z-score: -0.1377

## N[C@@H](Cc1ccc(N(CCCl)CCCl)cc1)C(=O)O [Melphalan]
[1]
  Raw Signal: 56974
[2]
  Z-score: 0.4336

## Clc1cccc(Cl)c1N=C1NCCN1 [Clonidine hydrochloride]
[3]
  Raw Signal: 54432
[4]
  Z-score: -0.6131

## CCN1CCCC1CNC(=O)c1cc(S(N)(=O)=O)ccc1OC (racemic) [(±)-Sulpiride]
[3]
  Raw Signal: 63231
[8]
  Z-score: 1.4

## NC(=O)c1ccccc1 [Benzamide]
[3]
  Raw Signal: 54873
[4]
  Z-score: -0.5354

## C[C@@]12N[C@@H](Cc3ccccc31)c1ccccc12.O=C(O)/C=C\C(=O)O [(-)-MK-801 hydrogen maleate]
[1]
  Raw Signal: 58481
[2]
  Z-score: 0.6868

## c1ccc(C2CN3CCSC3=N2)cc1 (stereo not drawn) [Tetramisole hydrochloride]
[3]
  Raw Signal: 64300
[8]
  Z-score: 1.608

## COc1ccc(CCN(C)CCc2ccc(OC)c(OC)c2)cc1OC.Cl [YS-035 hydrochloride]
[5]
  Raw Signal: 55463
[6]
  Z-score: -0.109

## C/C=C(/C)C(=O)O[C@H]1C(C)=C2[C@H]([C@@H]1OC(=O)CCCCCCC)[C@@](C)(OC(C)=O)C[C@H](OC(=O)CCC)[C@@]1(O)[C@H]2OC(=O)[C@@]1(C)O [Thapsigargin]
[5]
  Raw Signal: 56574
[7]
  Z-score: 0.1069

## CC(=O)SCC[N+](C)(C)C.[Cl-] [Acetylthiocholine chloride]
[5]
  Raw Signal: 58613
[7]
  Z-score: 0.1233

## Nc1nc2ccc(Cl)cc2c2nc(-c3ccco3)nn12 [CGS-15943]
  Raw Signal: 60608
  Z-score: 1.105

## CCCN(CCC)C(=O)Cc1c(-c2ccc(Cl)cc2)nc2c(Cl)cc(Cl)cn12 [CB34]
[1]
  Raw Signal: 60254
[2]
  Z-score: 0.4123

## CCC1(C)CC(=O)NC1=O (stereo not drawn) [Ethosuximide]
[1]
  Raw Signal: 57090
[2]
  Z-score: 0.3905

## CC(C)Cc1ccc([C@H](C)C(=O)O)cc1 [S(+)-Ibuprofen]
[5]
  Raw Signal: 55445
[7]
  Z-score: 0.1767

## Picrotoxin
[4]
  Z-score: -0.5599

## CO[C@@]1(NC(=O)CSCC#N)C(=O)N2C(C(=O)O)=C(CSc3nnnn3C)CS[C@@H]21 [Cefmetazole sodium]
[3]
  Raw Signal: 53279
[4]
  Z-score: -0.8162

## C[C@@H]1O[C@H](C[N+](C)(C)C)C[C@H]1O.[Cl-] (racemic) [(±)-Muscarine chloride]
[5]
  Raw Signal: 54548
[7]
  Z-score: 0.02596

## CC[C@]1(O)C[C@H]2CN(CCc3c([nH]c4ccccc34)[C@@](C(=O)OC)(c3cc4c(cc3OC)N(C=O)[C@H]3[C@@](O)(C(=O)OC)[C@H](OC(C)=O)[C@]5(CC)C=CCN6CC[C@]43[C@@H]65)C2)C1 [Vincristine sulfate]
[1]
  Raw Signal: 57865
[2]
  Z-score: 0.3577

## CN(N=O)c1cc(O)ccc1O [Dephostatin]
[5]
  Raw Signal: 55962
[7]
  Z-score: 0.1615

## CCCNC(C)C(=O)Nc1ccccc1C (stereo not drawn) [Prilocaine hydrochloride]
[5]
  Raw Signal: 55610
[7]
  Z-score: -0.08039

## C=C1C(=O)O[C@H]2[C@H]1CC/C(C)=C/CC[C@@]1(C)O[C@@H]21 [Parthenolide]
[1]
  Raw Signal: 56472
[2]
  Z-score: 0.3492

## C[C@@H]1OC[C@H](C[N+](C)(C)C)O1.[I-] [(+)-cis-Dioxolane iodide]
[5]
  Raw Signal: 55108
[7]
  Z-score: -0.01199

## CCN(CC)CCNC(=O)c1ccc(N)cc1 [Procainamide hydrochloride]
[3]
  Raw Signal: 51793
[4]
  Z-score: -0.822

## C[C@@H]1C(=O)NC2=Nc3cccc(Cl)c3CN21 [Quazinone]
[5]
  Raw Signal: 53682
[6]
  Z-score: -0.455

## Cl.NCC(O)C1CCCCCCC1 (stereo not drawn)
[3]
  Raw Signal: 52354
[4]
  Z-score: -0.5713

## O=C1Nc2ccc(I)cc2/C1=C/c1cc(Br)c(O)c(Br)c1 [GW5074]
[3]
  Raw Signal: 51521
[4]
  Z-score: -0.7405

## OCCN1CCN(CCCN2c3ccccc3Sc3ccc(C(F)(F)F)cc32)CC1 [Fluphenazine dihydrochloride]
[1]
  Raw Signal: 57313
[2]
  Z-score: 0.4358
